Measurements: PubChem BioAssay (NCI)
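Five concentrations, 48 hours, 96-well plates. Here, GI50 denotes the concentration required for 50% inhibition of growth. At the TGI there is no net growth.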

Legend:
Assay in all cases: NCI tumour cell line growth inhibition, 48 h
M14 melanoma = system: M14 melanoma
SK-MEL-28 melanoma = system: SK-MEL-28 melanoma
HOP-62 NSCLC = system: HOP-62 NSCLC
OVCAR-3 ovarian = system: OVCAR-3 ovarian
CCRF-CEM leukemia = system: CCRF-CEM leukemia
NCI-H23 lung = system: NCI-H23 lung
IGROV1 ovarian = system: IGROV1 ovarian
OVCAR-5 ovarian = system: OVCAR-5 ovarian
SF-295 CNS = system: SF-295 CNS
SNB-75 CNS = system: SNB-75 CNS

| SMILES | TGI (M14 melanoma) | TGI (SK-MEL-28 melanoma) | TGI (HOP-62 NSCLC) | TGI (OVCAR-3 ovarian) | TGI (CCRF-CEM leukemia) | TGI (NCI-H23 lung) | TGI (IGROV1 ovarian) | TGI (OVCAR-5 ovarian) | TGI (SF-295 CNS) | TGI (SNB-75 CNS) | GI50 (M14 melanoma) | GI50 (SK-MEL-28 melanoma) | GI50 (SNB-75 CNS) | GI50 (HOP-62 NSCLC) | GI50 (OVCAR-3 ovarian) | GI50 (CCRF-CEM leukemia) | GI50 (NCI-H23 lung) | GI50 (IGROV1 ovarian) | GI50 (OVCAR-5 ovarian) | GI50 (SF-295 CNS) |
| --- | --- | --- | --- | --- | --- | --- | --- | --- | --- | --- | --- | --- | --- | --- | --- | --- | --- | --- | --- | --- |
| C[C@]12CC[C@@H]3c4ccc(OCCN5CCCC5)cc4CC[C@H]3[C@@H]1CCC2=O | 29.4 µM | > 100 µM | 44.5 µM | 68.8 µM | > 100 µM | > 100 µM | 40.7 µM | 97.4 µM | 43.2 µM | – | – | – | – | – | – | – | – | – | – | – |
| CCCCCCCCCCCCCCCC(=O)OC1C(O)C(CO)OC(OC)C1NC(=O)N(CCCl)N=O (stereo unspecified) | 36.8 µM | 27.5 µM | 32.3 µM | 33.4 µM | – | 21 µM | 38.3 µM | 30.4 µM | 24 µM | 24.6 µM | – | – | – | – | – | – | – | – | – | – |
| CCCOC1OC(CS(=O)(=O)O)C(O)C(O)C1O (stereo unspecified) | > 100 µM | > 100 µM | > 100 µM | > 100 µM | > 100 µM | > 100 µM | > 100 µM | > 100 µM | > 100 µM | > 100 µM | – | – | – | – | – | – | – | – | – | – |
| O=c1nc2sc3ccc4ccccc4c3n2[nH]c1=O | – | > 100 µM | 71.5 µM | > 100 µM | > 100 µM | > 100 µM | > 100 µM | – | > 100 µM | > 100 µM | – | – | – | – | – | – | – | – | – | – |
| CCCCN=C1OCc2[nH][nH]c(=O)c21 | > 100 µM | > 100 µM | > 100 µM | – | > 100 µM | > 100 µM | > 100 µM | > 100 µM | > 100 µM | > 100 µM | – | – | – | – | – | – | – | – | – | – |
| O=C(O)Cn1c2c(c3c(O)cccc31)C(=O)c1ccccc1-2 | > 100 µM | > 100 µM | > 100 µM | > 100 µM | > 100 µM | > 100 µM | > 100 µM | > 100 µM | > 100 µM | > 100 µM | > 100 µM | > 100 µM | > 100 µM | > 100 µM | > 100 µM | > 100 µM | > 100 µM | > 100 µM | > 100 µM | > 100 µM |
| CCOC(=O)NC(Nc1ccc(Cl)cn1)(C(F)(F)F)C(F)(F)F | > 100 µM | > 100 µM | > 100 µM | > 100 µM | > 100 µM | > 100 µM | – | > 100 µM | – | > 100 µM | – | – | – | – | – | – | – | – | – | – |
| N#CCCN(CCC#N)c1ccc(/C=C2\N=C(c3cc([N+](=O)[O-])ccc3Cl)N(NC(=O)CC(=O)Nc3ccccc3Cl)C2=O)cc1 | > 100 µM | > 100 µM | > 100 µM | > 100 µM | > 100 µM | > 100 µM | > 100 µM | 66.5 µM | > 100 µM | – | – | – | – | – | – | – | – | – | – | – |
| CC(=O)N/C(=C\c1ccc(/C=C(\NC(C)=O)C2=NC3C(=O)c4ccccc4C(=O)C3N2)cc1)C1=NC2C(=O)c3ccccc3C(=O)C2N1 (stereo unspecified) | > 100 µM | > 100 µM | – | > 100 µM | 86.4 µM | > 100 µM | > 100 µM | > 100 µM | > 100 µM | 76.2 µM | – | – | – | – | – | – | – | – | – | – |
